{"source": "patent US20100120723A1", "about": "“PHARMACEUTICAL COMPOSITION COMPRISING A HOT-MELT GRANULATED LUBRICANT” (priority 2006, published 2010)", "origin": "cited, not measured here", "tested_on": "bone resorption", "details": "animal models of bone resorption"}
{"smiles": "CCCCCN(C)CCC(O)(P(=O)(O)O)P(=O)(O)O", "note": "[Sodium ibandronate]", "values": [{"measurement": "potency relative to alendronate, risedronate, pamidronate and clodronate", "result": "many times more potent"}]}
